What all share (type): functional, cell-based
One test concerns SW480. In words: Cytotoxicity against human SW480 cells assessed as reduction in cell viability measured after 48 hrs by MTT assay. As to conditions: for IC50: SW480, 48 h. In general terms: Tetrazolium assays rely on reduction of a dye to a coloured formazan, in cell work by metabolically active cells.
Another test relates to HL-60. In words: Cytotoxicity against human HL-60 cells assessed as reduction in cell viability measured after 48 hrs by MTT assay. As to conditions: for IC50: HL-60, 48 h.
The test system of another test is A549. In words: Cytotoxicity against human A549 cells assessed as reduction in cell viability measured after 48 hrs by MTT assay. To be noted: for IC50: A549, 48 h.
A further test deals with MCF7. In words: Cytotoxicity against human MCF7 cells assessed as reduction in cell viability measured after 48 hrs by MTT assay. As to conditions: for IC50: MCF7, 48 h.

Activity calls are given as the source filed them. The calls are words filed in the database; no cut-off is given here.

Drawing on ChEMBL document CHEMBL4840320, “Taccachatrones A-G, Highly Oxidized Steroids from the Rhizomes of Tacca chantrierii and Their Cytotoxicity Assessment” (J Nat Prod, 2021), this text covers Activity and IC50 for 9 compounds.

What is called IC50 is the concentration that inhibits the measured activity by half.

On to `CC(=O)O[C@H]1C[C@H]2[C@@H]([C@@H]3O[C@@H]3[C@@]3(O)C[C@@H]4O[C@@H]4[C@H](OC(C)=O)[C@]23C)[C@@H]2C[C@H]3[C@H](CO)CC(=O)[C@@H](C)[C@@H]3[C@@]12C`, for which the result in the test on SW480, in the test with HL-60, in the test with A549 and in the test on MCF7 was inactive.
For `CC(=O)O[C@H]1C[C@H]2[C@H]([C@@H]3[C@@H](O)[C@@H]4[C@H]([C@H](C)C=C5OC(=O)C(C)(O)[C@@]54C)[C@]31C)[C@@H](O)C(=O)[C@H]1C[C@@H]3O[C@H]3[C@H](OC(=O)CC(C)C)[C@@]12C` (stereo partly specified), the concentration for half-maximal inhibition (IC50) was above 10 µM with SW480, 1.6 µM in the test on HL-60, 2.8 µM with A549 and 6.9 µM in the test with MCF7.
For `CC(=O)O[C@H]1[C@H]2[C@H]([C@@H]3[C@H]4OC(C)(O)[C@]5(C)[C@H]4[C@H]([C@H](C)C(=O)[C@H]5O)[C@@]3(C)[C@H]1OC(C)=O)[C@@H](OC(C)=O)C(=O)[C@H]1C[C@@H]3O[C@H]3[C@H](OC(C)=O)[C@]21C` (stereo partly specified), in that order: above 10 µM, above 10 µM, 7.5 µM and above 10 µM.
Turning to `CC(=O)O[C@H]1[C@H]2[C@H]([C@@H]3[C@@H](O)C4=C(C)C(=O)[C@@H](O)[C@@H](C)[C@@H]4[C@@]3(C)[C@H]1OC(C)=O)[C@@H](O)C(=O)[C@H]1C[C@@H]3O[C@@H]3[C@H](OC(C)=O)[C@]21C`, the result with SW480, in the test on HL-60, in the test on A549 and with MCF7 was inactive.
`CC(=O)O[C@H]1C[C@H]2[C@@H](C(=O)[C@H](O)[C@@]3(O)C[C@@H]4O[C@@H]4[C@H](OC(C)=O)[C@]23C)[C@@H]2[C@H](O)[C@@H]3[C@H]([C@H](C)CC(=O)[C@H]3C)[C@]21C`: the outcome in the test with SW480, with HL-60, in the test on A549 and in the test with MCF7 was inactive.
In the case of `CC(=O)O[C@H]1C(=O)[C@@]2(C)[C@H]([C@H](OC(=O)c3ccccc3)[C@]3(O)C[C@H](OC(=O)[C@H](O)[C@@H](NC(=O)c4ccccc4)c4ccccc4)C(C)=C1C3(C)C)[C@]1(OC(C)=O)CO[C@@H]1C[C@@H]2O` [PACLITAXEL], the IC50 in the test on SW480, in the test with HL-60, with A549 and in the test on MCF7 was below 0.008 µM each time.
Take `CC(=O)O[C@@H]1[C@H]2[C@@H]3[C@@H](OC(C)=O)C(=O)[C@@]4(O)C[C@@H]5O[C@H]5[C@H](OC(=O)CC(C)C)[C@]4(C)[C@H]3C[C@H](OC(C)=O)[C@]2(C)[C@@H]2[C@@H]1[C@]1(C)C(=C[C@H]2C)OC(=O)C1(C)O` (stereo partly specified): the half-maximal inhibitory concentration (IC50) with SW480 was above 10 µM; in the test with HL-60 it was above 10 µM; with A549, 8.3 µM; in the test with MCF7, above 10 µM.
In the case of `CC(=O)O[C@@H]1[C@H]2[C@H]3[C@H]([C@H](O)[C@H](OC(C)=O)[C@]2(C)[C@H]2[C@H](C)[C@H](OC(C)=O)[C@@H]4OC(=O)C(C)(O)[C@]4(C)[C@H]12)[C@]1(C)[C@H](C[C@@H]2O[C@H]2[C@@H]1OC(C)=O)C(=O)[C@@H]3O` (stereo partly specified), the IC50 with SW480 was above 10 µM; in the test with HL-60 it was above 10 µM; with A549 it was 7.3 µM; in the test with MCF7, above 10 µM.
For `CC(=O)O[C@H]1C[C@H]2[C@@H](C(=O)[C@H](O)[C@@]3(O)C[C@@H]4O[C@@H]4[C@H](OC(C)=O)[C@]23C)[C@@H]2C(=O)[C@H]3[C@H](C)[C@@H](O)C[C@@H](C)[C@@H]3[C@@]12C`, the outcome in the test with SW480, in the test on HL-60, with A549 and in the test on MCF7 was inactive.
